According to PMC5865651, “Novel inhibitor candidates of TRPV2 prevent damage of dystrophic myocytes and ameliorate against dilated cardiomyopathy in a hamster model” (Oncotarget, 2018):

Key:
human TRPV2 (hTRPV2) = biological target: T1, human TRPV2 (hTRPV2) (Homo sapiens, UniProt Q9Y5S1); conditions: cited from earlier work
T1 sequence (Q9Y5S1 1-764): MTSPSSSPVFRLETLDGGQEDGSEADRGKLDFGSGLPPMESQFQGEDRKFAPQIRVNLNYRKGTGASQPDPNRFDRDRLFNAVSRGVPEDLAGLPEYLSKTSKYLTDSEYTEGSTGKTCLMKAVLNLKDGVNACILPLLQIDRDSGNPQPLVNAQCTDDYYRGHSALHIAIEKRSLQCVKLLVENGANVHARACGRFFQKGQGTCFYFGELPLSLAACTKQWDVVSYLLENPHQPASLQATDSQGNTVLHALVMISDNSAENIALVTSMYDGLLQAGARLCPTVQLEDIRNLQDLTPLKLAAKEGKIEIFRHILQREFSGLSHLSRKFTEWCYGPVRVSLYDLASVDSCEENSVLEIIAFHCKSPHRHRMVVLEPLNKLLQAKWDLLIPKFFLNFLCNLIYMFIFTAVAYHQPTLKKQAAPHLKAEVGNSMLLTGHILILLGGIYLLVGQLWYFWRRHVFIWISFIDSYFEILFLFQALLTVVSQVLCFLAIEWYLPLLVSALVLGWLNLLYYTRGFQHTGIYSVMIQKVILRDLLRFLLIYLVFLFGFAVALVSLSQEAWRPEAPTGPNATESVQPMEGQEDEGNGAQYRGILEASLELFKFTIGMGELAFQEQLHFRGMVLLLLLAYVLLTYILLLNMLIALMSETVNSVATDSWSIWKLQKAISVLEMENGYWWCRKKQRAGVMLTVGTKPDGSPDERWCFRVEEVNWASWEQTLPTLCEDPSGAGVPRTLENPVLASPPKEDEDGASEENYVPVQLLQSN

[1] = test system: dystrophic myocytes from J2N-k hamsters; test: Ca2+ response in cultured myocytes from dystrophic J2N-k hamsters; type: cell-based, hamster; conditions: compound 15 μM
[2] = biological target: T2, human Cav1.2/β2/α2δ1 L-type calcium channel (Homo sapiens, UniProt Q13936); test: L-type Ca2+ current in human Cav1.2/β2/α2δ1 expressing CHO cells (patch clamp); type: cell-based; conditions: CHO cells expressing human Cav1.2/β2/α2δ1 calcium channel, pH 7.4, 15 μM lumin, n = 3, read-out: L-type current, % of control
T2 construct: host or cells: CHO cells (purchased recombinant cell line)
T2 sequence (Q13936 whole entry): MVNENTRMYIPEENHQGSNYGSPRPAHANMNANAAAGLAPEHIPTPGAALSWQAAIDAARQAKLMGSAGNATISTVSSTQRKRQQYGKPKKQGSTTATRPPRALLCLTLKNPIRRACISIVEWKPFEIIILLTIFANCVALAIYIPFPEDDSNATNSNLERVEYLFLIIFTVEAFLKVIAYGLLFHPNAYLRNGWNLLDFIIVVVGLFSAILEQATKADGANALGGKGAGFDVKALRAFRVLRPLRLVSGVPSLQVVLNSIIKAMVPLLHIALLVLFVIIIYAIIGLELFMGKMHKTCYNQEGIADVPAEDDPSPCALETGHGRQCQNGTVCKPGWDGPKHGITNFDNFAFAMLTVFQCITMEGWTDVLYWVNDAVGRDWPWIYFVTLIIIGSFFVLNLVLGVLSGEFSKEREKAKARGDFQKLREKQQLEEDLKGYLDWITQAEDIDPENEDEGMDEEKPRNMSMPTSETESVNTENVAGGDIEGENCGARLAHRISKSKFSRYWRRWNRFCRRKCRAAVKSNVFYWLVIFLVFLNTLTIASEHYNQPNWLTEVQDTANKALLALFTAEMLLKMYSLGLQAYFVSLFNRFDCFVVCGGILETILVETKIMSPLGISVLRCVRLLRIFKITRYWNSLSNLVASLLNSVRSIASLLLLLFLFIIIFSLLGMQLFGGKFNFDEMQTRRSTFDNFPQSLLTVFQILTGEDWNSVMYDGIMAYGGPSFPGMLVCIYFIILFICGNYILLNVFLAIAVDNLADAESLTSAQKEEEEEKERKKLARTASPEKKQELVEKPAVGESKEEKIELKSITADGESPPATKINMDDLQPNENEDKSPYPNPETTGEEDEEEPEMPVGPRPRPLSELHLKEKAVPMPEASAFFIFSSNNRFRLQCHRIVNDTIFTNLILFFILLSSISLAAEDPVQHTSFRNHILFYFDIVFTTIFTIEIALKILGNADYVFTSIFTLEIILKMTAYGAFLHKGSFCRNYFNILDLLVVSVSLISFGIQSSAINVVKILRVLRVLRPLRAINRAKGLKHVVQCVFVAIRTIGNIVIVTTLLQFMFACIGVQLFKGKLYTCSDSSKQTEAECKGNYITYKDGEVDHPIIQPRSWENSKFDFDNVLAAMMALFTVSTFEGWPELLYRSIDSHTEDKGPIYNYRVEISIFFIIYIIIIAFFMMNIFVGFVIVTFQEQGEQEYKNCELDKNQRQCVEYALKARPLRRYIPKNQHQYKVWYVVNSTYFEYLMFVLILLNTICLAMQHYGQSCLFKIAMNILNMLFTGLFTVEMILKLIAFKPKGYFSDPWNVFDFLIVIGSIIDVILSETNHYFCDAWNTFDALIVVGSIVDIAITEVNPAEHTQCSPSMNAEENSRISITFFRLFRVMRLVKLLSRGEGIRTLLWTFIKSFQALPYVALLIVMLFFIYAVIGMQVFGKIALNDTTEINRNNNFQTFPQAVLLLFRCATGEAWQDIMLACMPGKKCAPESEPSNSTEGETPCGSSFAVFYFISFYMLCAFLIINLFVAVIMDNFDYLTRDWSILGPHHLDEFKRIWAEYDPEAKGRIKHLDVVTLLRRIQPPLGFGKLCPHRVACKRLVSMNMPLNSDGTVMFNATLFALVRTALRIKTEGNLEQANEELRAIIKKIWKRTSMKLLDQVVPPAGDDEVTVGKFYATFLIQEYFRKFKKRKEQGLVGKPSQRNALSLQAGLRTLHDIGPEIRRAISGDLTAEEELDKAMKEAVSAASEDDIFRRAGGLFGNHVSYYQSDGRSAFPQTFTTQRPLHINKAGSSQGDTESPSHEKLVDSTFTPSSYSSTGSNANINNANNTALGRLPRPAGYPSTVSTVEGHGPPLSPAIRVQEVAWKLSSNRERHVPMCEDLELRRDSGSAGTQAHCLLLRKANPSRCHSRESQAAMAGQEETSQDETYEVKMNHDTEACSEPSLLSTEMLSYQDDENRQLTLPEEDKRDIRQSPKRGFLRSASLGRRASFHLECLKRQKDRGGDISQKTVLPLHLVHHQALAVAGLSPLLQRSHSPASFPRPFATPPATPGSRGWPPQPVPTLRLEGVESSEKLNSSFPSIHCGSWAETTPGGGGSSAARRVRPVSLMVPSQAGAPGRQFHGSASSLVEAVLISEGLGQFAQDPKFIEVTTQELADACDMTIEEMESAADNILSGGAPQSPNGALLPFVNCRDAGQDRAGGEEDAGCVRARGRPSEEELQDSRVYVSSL
T2 sequence (Q08289 whole entry partner): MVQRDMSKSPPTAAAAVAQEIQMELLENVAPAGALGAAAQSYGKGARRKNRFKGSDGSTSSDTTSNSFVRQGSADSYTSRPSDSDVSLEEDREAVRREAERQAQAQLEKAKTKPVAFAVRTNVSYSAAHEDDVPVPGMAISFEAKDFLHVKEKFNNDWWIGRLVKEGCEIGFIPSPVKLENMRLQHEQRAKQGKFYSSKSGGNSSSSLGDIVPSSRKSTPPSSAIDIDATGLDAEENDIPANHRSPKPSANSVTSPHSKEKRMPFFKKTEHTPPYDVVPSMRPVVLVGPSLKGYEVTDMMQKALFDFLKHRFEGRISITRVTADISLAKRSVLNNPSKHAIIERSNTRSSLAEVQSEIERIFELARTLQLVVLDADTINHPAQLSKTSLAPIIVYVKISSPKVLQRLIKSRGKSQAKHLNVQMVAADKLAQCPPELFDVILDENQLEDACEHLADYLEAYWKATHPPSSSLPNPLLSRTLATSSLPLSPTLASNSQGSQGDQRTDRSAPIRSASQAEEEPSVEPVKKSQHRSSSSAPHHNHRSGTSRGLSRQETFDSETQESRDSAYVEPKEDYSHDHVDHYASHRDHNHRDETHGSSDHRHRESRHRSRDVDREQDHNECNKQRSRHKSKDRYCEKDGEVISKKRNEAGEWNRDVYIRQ
T2 sequence (P54289 25-956 partner limits assumed): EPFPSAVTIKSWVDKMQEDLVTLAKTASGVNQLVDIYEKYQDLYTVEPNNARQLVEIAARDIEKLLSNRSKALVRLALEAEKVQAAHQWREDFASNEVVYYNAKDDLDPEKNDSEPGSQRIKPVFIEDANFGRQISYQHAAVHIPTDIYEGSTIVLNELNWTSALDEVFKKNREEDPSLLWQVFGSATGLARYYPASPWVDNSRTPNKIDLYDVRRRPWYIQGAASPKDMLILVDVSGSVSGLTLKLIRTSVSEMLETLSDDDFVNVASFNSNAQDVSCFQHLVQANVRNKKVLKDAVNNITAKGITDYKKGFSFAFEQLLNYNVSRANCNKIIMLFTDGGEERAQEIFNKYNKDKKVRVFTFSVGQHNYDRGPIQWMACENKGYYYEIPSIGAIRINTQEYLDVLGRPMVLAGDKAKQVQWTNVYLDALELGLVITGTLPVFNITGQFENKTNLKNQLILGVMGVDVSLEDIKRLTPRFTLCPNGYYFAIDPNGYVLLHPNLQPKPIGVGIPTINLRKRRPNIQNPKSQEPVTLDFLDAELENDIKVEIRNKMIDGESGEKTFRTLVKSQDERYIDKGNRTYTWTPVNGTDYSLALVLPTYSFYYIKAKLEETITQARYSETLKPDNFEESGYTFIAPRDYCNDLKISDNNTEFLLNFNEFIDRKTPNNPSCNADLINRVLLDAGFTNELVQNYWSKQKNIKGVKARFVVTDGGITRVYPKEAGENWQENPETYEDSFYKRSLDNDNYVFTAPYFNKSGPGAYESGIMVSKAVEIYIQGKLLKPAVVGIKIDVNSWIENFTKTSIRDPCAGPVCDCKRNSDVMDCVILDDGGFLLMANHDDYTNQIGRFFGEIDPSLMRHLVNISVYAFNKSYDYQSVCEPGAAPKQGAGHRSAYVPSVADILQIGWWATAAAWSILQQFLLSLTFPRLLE
T2 sequence (P54289 957-1103 partner limits assumed): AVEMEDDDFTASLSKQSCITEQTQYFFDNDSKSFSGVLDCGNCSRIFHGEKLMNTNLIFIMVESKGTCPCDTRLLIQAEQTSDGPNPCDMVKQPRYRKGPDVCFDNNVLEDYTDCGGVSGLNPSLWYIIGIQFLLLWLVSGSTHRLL
Procedure: Figure 8 Effect of lumin on the Ca^2+ response and channel activity in HEK293 cells expressing mTRPV2 (A) Inhibition of the 2-APB-induced increase in [Ca^2+]i in HEK293 cells expressing mTRPV2 by lumin. Cells were loaded with fura-2-AM and stimulated with 2-APB (0.3 mM) in the absence or presence of the indicated concentrations of lumin. The fluorescence ratio was measured by a microplate reader and normalized by the maximal value. Data are shown as mean ± SD (n = 5). (B) Lumin blocked the mTRPV2 channel. The current values at −100 mV measured by an every-2-second ramp protocol were plotted. After the current activated by 200 μM 2-APB at pH 6.5 became stable, a mixture of 15 μM lumin and 2-APB was applied to the cells. (C) Effect of lumin on the current-voltage relationship of 2-APB-evoked current. (D) Concentration-dependence of lumin for the inhibition of mTRPV2 current. Data are shown as mean ± SD (n = 3–5) (E) Effect of lumin (15 μM) on L-type Ca^2+ channel activity. The current waveforms of the control cells and the cells 11 minutes after application of 15 μM lumin were superimposed. […]
For the measurement of L-type Ca^2+ currents, human Cav1.2/β2/α2δ1 calcium channel expressing CHO cells were purchased from ChanTest (Cleveland, OH, USA). […] The data were analysed and plotted with Clampfit 9 (Molecular Devices, LLC, Sunnyvale, CA, USA). […]

| SMILES | response of hTRPV2 to 2-APB (human TRPV2 (hTRPV2)) | effect on high extracellular Ca2+ (5 mM)-induced increase in [Ca2+]i [1] | effect on 2-APB-induced increase in [Ca2+]i ([1]; 2-APB 0.5 mM, CaCl2 5 mM, pH 6.5) | activity at 11 min, 15 μM [2] [%] |
| --- | --- | --- | --- | --- |
| NCCOB(c1ccccc1)c1ccccc1 [2-APB, 2-aminoethoxydiphenylborate] | unresponsive | – | – | – |
| CCN1C=CC(=CC=C(C=Cc2cc[n+](CC)c3ccccc23)c2cc[n+](CC)c3ccccc23)c2ccccc21.[I-].[I-] [lumin, 4,4′-[3-[2-[1-ethyl-4(1H)-quinolinylidene]ethylidene]-1-propene-1,3-diyl]bis(1-ethylquinolinium) diiodide] | – | inhibited | inhibited | 96.6 ± 8.7 |
